Test [1] has as its target T1, Na^+,K^+ -ATPase (Homo sapiens, UniProt P05023).
T1 construct: receptor purified according to Jorgensen (Jorgensen P., BBA, 1974,356, 36); from tissue
Description: displacement of the specific 3H-ouabain binding from the purified Na+,K+-ATPase receptor. The conditions noted are these: read-out: Binding ^3 H-Ouab. Displacement log. IC50 (converted). The text has this:
(§1) To test the affinity for the receptor site of the Na^+,K^+ -ATPase and the agonist or antagonist activity on the enzyme, the following tests are used: a) displacement of the specific 3-Houabain binding from the Na^+,K^+ -ATPase receptor purified according to Jorgensen (Jorgensen P., BBA, 1974,356, 36) and Erdmann (L. Brown and E. Erdmann., Arzneim. Forsh., 1984, 34 (II), 1314); b) inhibition of the activity of the purified Na^+,K^+ -ATPase measured as % of hydrolysis of ^32 P-ATP in presence and in absence of the tested compound (F. Noel and Godfraind., Biochem. Pharmacol., 1984, 33, 47).

Test [2] has as its target T1, Na^+,K^+ -ATPase. The test can be described thus: inhibition of the activity of the purified Na+,K+-ATPase, measured as % of hydrolysis of 32P-ATP. Type of test: biochemical. The conditions noted are these: read-out: Inhibitory Activity log IC50 (converted).
Excerpt: as §1

Take `C(=CC1CCC2(CC1)CCC(OCCN1CCCC1)CC2)c1ccoc1` (mixture of isomers) [Comp. I-a, (EZ)-9-(2(N-Pyrrolidinyl)ethoxy)-3-(2-(3-furyl)vinyl)-spiro[5.5]undecane]: the concentration for half-maximal inhibition (IC50) was 79.4 µM on Na^+,K^+ -ATPase [1] and 25.1 µM on Na^+,K^+ -ATPase [2].

For `C1CCN(CCOC2CCC3(CCC(CCC4CCOC4)CC3)CC2)C1` (racemic) [Comp. 1-i, (RS)-9-(2-(N-Pyrrolidinyl)ethoxy)-3-(2-(3-(RS)-tetra-hydrofuryl)ethyl)-spiro[5.5]undecane], the concentration for half-maximal inhibition (IC50) at Na^+,K^+ -ATPase [1] and on Na^+,K^+ -ATPase [2] was 100 µM in each case.

Turning to `NCCSCC1CCC2(CC1)CCC(Cc1ccoc1)CC2` (stereo not shown) [Comp. 1-be, 9-(2-Aminoethylthiomethyl)-3-(3-furyl)methyl-spiro[5.5]undecane], the IC50 on Na^+,K^+ -ATPase [1] was 10 µM; on Na^+,K^+ -ATPase [2], 15.8 µM.

For the compound `O=C1OCC=C1CCC1CCC2(CC1)CCC(OCCN1CCCC1)CC2` (stereo not shown) [Comp. 1-bg, 9-(2-(N-pyrrolidinyl)ethoxy)-3-(2-(2-oxo-[5H]-3-furyl)ethyl)-spiro[5.5]undecane], the IC50 at Na^+,K^+ -ATPase [1] and on Na^+,K^+ -ATPase [2] was 100 µM throughout.

With `OC1(Cc2ccoc2)CCC2(CCC(COCCN3CCCC3)CC2)CC1` (stereo not shown) [Comp. I-ab, 9-(2-(N-Pyrrolidinyl)ethoxy)methyl-3-(3-furyl)meth-yl-3-hydroxy-spiro[5.5]undecane], the IC50 at Na^+,K^+ -ATPase [1] and at Na^+,K^+ -ATPase [2] was 15.8 µM each time.

Consider `N=C(N)NN=C1CCC2(CC1)CCC(CO)CC2` (stereo not shown) [Comp. I-ay, 9-Hydroxymethyl-3-guanidinoimino-spiro[5.5]undecane], for which the IC50 at Na^+,K^+ -ATPase [1] was 25.1 µM; at Na^+,K^+ -ATPase [2], 100 µM.

As to `N=C(N)NN=CC1CCC2(CCC(O)CC2)CC1` (stereo not shown) [Comp. I-az, 9-Hydroxy-3-guanidinoiminomethyl-spirol[5.5]undecane], the IC50 was 15.8 µM on Na^+,K^+ -ATPase [1] and 63.1 µM on Na^+,K^+ -ATPase [2].

On to `c1cc(CC2CCC3(CCC(CSCCN4CCCC4)CC3)CC2)co1` (stereo not shown) [Comp. I-bf, 9-(2-(N-Pyrrolidinyl)ethyl-thiomethyl)-3-(3-furyl)methyl-spiro[5.5]undecane], for which the IC50 was 39.8 µM at Na^+,K^+ -ATPase [1] and 100 µM on Na^+,K^+ -ATPase [2].

As to `O=C1C=C(CCC2CCC3(CC2)CCC(OCCN2CCCC2)CC3)CO1` (stereo not shown) [Comp. I-bh, 9-(2-(N-Pyrrolidinyl)ethoxy)-3-(2-(2-oxo-[5H]-4-furyl)-ethyl)-spiro[5.5]undecane], the IC50 on Na^+,K^+ -ATPase [1] was 63.1 µM; on Na^+,K^+ -ATPase [2], 100 µM.

For the compound `c1cc(CCC2CCC3(CC2)CCC(OCCN2CCCC2)CC3)co1` (stereo not shown) [Comp. I-g, 9-(2-(N-Pyrrolidinyl)ethoxy)-3-(2-(3-furyl)ethyl)-spiro[5.5]undecane], the results for the IC50 at Na^+,K^+ -ATPase [1] and on Na^+,K^+ -ATPase [2] were 12.6 µM and 15.8 µM, respectively.

Consider `c1cncc(CCC2CCC3(CC2)CCC(OCCN2CCCC2)CC3)c1` (stereo not shown) [Comp. I-h, 9-(2-(N-Pyrrolidinyl)ethoxy)-3-(2-(3-pyridyl)ethyl)-spiro[5.5]undecane], for which the IC50 at Na^+,K^+ -ATPase [1] is 25.1 µM; on Na^+,K^+ -ATPase [2], 100 µM.

Turning to `c1cc(CC2CCC3(CCC(COCCN4CCCC4)CC3)CC2)co1` (stereo not shown) [Comp. I-j, 9-(2-(N-Pyrrolidinyl)ethoxy)methyl-3-(3-furyl)methyl-spiro[5.5]undecane], the IC50 is 7.94 µM at Na^+,K^+ -ATPase [1] and 50.1 µM on Na^+,K^+ -ATPase [2].

`c1cc(CCC2CCC3(CC2)CCC(OCCCN2CCCC2)CC3)co1` (stereo not shown) [Comp. I-m]: the IC50 was 31.6 µM on Na^+,K^+ -ATPase [1] and 50.1 µM on Na^+,K^+ -ATPase [2].

As to `c1cc(CC2CCC3(CCC(COCCCN4CCCC4)CC3)CC2)co1` (stereo not shown) [Comp. I-r, 9-(3-(N-Pyrrolidinyl)propoxy)methyl-3-(3-furyl)-methyl-spiro[5.5]undecane], the IC50 at Na^+,K^+ -ATPase [1] is 31.6 µM; on Na^+,K^+ -ATPase [2], 12.6 µM.

As to `OC(COC1CCC2(CCC(CCc3ccoc3)CC2)CC1)CN1CCCC1` (stereo not shown) [Comp. I-t, 9-(3-(N-Pyrrolidinyl)-2-hydroxypropoxy)-3-(2-(3-furyl)ethyl)-spiro[5.5]undecane], the 50% inhibitory concentration (IC50) on Na^+,K^+ -ATPase [1] is 100 µM; on Na^+,K^+ -ATPase [2] it was 50.1 µM.

As to `NC(CO)COC1CCC2(CCC(CCc3ccoc3)CC2)CC1` (stereo not shown) [Comp. I-u, 9-(2-Amino-3-hydroxypropoxy)-3-(2-(3-furyl)ethyl)-spiro[5.5]undecane], the IC50 at Na^+,K^+ -ATPase [1] and on Na^+,K^+ -ATPase [2] was 50.1 µM throughout.

As for `OC1(CCc2ccoc2)CCC2(CCC(OCCN3CCCC3)CC2)CC1` (stereo not shown) [Comp. I-x, 9.(2-(N-pyrrolidinyl)ethoxy)-3-(2-(3-furyl)ethyl)-3-hydroxy-spiro[5.5]undecane], the 50% inhibitory concentration (IC50) on Na^+,K^+ -ATPase [1] and on Na^+,K^+ -ATPase [2] was 100 µM in each case.
